# Reference: patent US12146004B2, “Polymyxin compounds and uses thereof” (priority 2014, dated 2024)
# Where two headings read alike, the source gives them in different places. Numbered stars: 1 amine (or outer) side, 2 acyl side, 3 side chain; on linkers, the order of the positions; unused ones are H or OH. Bridge positions count the residues as written; N and C are the ends. Square brackets hold non-standard residues; d marks the D form. Peptide text beside a SMILES is read from it. * marks the point of attachment. ξ: configuration not given here. X12 = O=C([C@@H](Cc1ccc(C2CCCCC2)cc1)N[*:1])[*:2]; Thr(3ξ) = CC(O)[C@H](N)C(=O)O; Dab = NCC[C@H](N)C(=O)O; X6 = CCCCCCC(CCN)C(=O)*; Dap = NC[C@H](N)C(=O)O; X2 = CC(C)CC(CN)C(=O)*
# Key:
# Type in all cases: cell-based
# Escherichia coli = system: Escherichia coli
# In short: (§1)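 Each compound was tested against a panel of up to nine strains per Gram-negative species. The panel included strains that show elevated MICs to Polymyxin. Activity was recorded as MIC in μg/mL.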
# Acinetobacter baumannii = system: Acinetobacter baumannii
# In short: as §1
# Pseudomonas aeruginosa = system: Pseudomonas aeruginosa
# In short: as §1
# Klebsiella pneumoniae = system: Klebsiella pneumoniae
# In short: as §1
# HK-2 cells = system: HK-2 cells
# Source text: Values are reported relative to Polymyxin B.
MIC E. coli 058 (Escherichia coli) [µg/mL],MIC E. coli 061 (Escherichia coli) [µg/mL],MIC E. coli ATCC 25922 (Escherichia coli) [µg/mL],MIC E. coli NCTC 9001 (Escherichia coli) [µg/mL],MIC A. baumanii 053 (Acinetobacter baumannii) [µg/mL],MIC A. baumanii 056 (Acinetobacter baumannii) [µg/mL],MIC A. baumanii ATCC BAA-747 (Acinetobacter baumannii) [µg/mL],MIC A. baumanii NCTC 13424 (Acinetobacter baumannii) [µg/mL],MIC P. aeruginosa 068 (Pseudomonas aeruginosa) [µg/mL],MIC P. aeruginosa 070 (Pseudomonas aeruginosa) [µg/mL],MIC P. aeruginosa ATCC 27853 (Pseudomonas aeruginosa) [µg/mL],MIC P. aeruginosa CCUG 59347 (Pseudomonas aeruginosa) [µg/mL],MIC K. pneumoniae 063 (Klebsiella pneumoniae) [µg/mL],MIC K. pneumoniae 065 (Klebsiella pneumoniae) [µg/mL],MIC K. pneumoniae ATCC 4352 (Klebsiella pneumoniae) [µg/mL],HK-2 IC50 (HK-2 cells) [µg/mL],MIC K. pneumoniae ATCC 13882 (Klebsiella pneumoniae) [µg/mL],Structure (SMILES),further results
2,8,0.5,0.5,8,4,0.5,0.25,4,2,0.5,1,8,0.5,0.25,18,–,"CC(C)CC(CN)C(=O)N[C@H](C(=O)N[C@@H](CN)C(=O)N[C@H]1CCNC(=O)[C@H]([C@@H](C)O)NC(=O)[C@H](CCN)NC(=O)[C@H](CCN)NC(=O)[C@H](CC(C)C)NC(=O)[C@@H](Cc2ccc(C3CCCCC3)cc2)NC(=O)[C@H](CCN)NC1=O)C(C)O (stereo partly drawn) [Example 27, 2-(Aminomethyl)-4-methylpentanoyl L-Thr-L-Dap-polymyxin [D-(4-cyclohexyl Phe)]-6 heptapeptide] (X2-[Thr(3ξ)][Dap][Dab][Dab][X12]L[Dab][Dab]T; lactam 3-C)",–
2,16,0.06,0.03,>64,16,0.125,0.25,8,32,0.125,0.5,8,1,0.06,29,0.125,"CCCCCCC(CCN)C(=O)N[C@H](C(=O)N[C@@H](CCN)C(=O)N[C@H]1CCNC(=O)[C@H]([C@@H](C)O)NC(=O)[C@H](CCN)NC(=O)[C@H](CCN)NC(=O)[C@H](CC(C)C)NC(=O)[C@@H](Cc2ccccc2)NC(=O)[C@H](CCN)NC1=O)C(C)O (stereo partly drawn) [Example C5, 2-(2-Aminoethyl) octanoyl polymyxin B nonapeptide, reference compound] (X6-[Thr(3ξ)][Dab][Dab][Dab][dF]L[Dab][Dab]T; lactam 3-C)",–
4,8,0.125,0.06,>32,32,0.06,0.06,4,4,0.5,0.5,16,1.5,–,206,0.125,"CCCCC(CCN)C(=O)N[C@H](C(=O)N[C@@H](CN)C(=O)N[C@H]1CCNC(=O)[C@H]([C@@H](C)O)NC(=O)[C@H](CCN)NC(=O)[C@H](CCN)NC(=O)[C@H](CC(C)C)NC(=O)[C@@H](CC2CCCCC2)NC(=O)[C@H](CCN)NC1=O)[C@@H](C)O (single isomer, unassigned; isomer 2) [Example 41, 2-(2-aminoethyl) hexanoyl L-Thr-L-Dap-polymyxin [D-cyclohexylalanine]-6 heptapeptide. Isomer 2]",cytotoxicity (HK-2 cells): significantly lower cytotoxicity compared with C6
–,–,–,–,–,–,–,–,–,–,–,–,–,–,–,–,–,"CC(C)C[C@@H]1NC(=O)[C@@H](CC2CCCCC2)NC(=O)[C@H](CCN)NC(=O)[C@@H](NC(=O)[C@H](CCN)NC(=O)[C@@H](NC(=O)CC(CN)Cc2ccccc2)[C@@H](C)O)CCNC(=O)[C@H]([C@@H](C)O)NC(=O)[C@H](CCN)NC(=O)[C@H](CCN)NC1=O (single isomer, unassigned; isomer 2) [Example 67, 4-amino-3-benzylbutanoyl polymyxin [D-cyclohexylalanine]-6 nonapeptide isomer 2]",MIC E. coli 058 (Escherichia coli; strain 058): 4 µg/mL; MIC E. coli 061 (Escherichia coli; strain 061): 16 µg/mL; MIC E. coli ATCC 25922 (Escherichia coli; strain ATCC 25922): 0.125 µg/mL; MIC E. coli NCTC 9001 (Escherichia coli; strain NCTC 9001): 0.06 µg/mL; MIC A. baumanii 053 (Acinetobacter baumannii; strain 053): 64 µg/mL; MIC A. baumanii 056 (Acinetobacter baumannii; strain 056): 16 µg/mL; MIC A. baumanii ATCC BAA-747 (Acinetobacter baumannii; strain ATCC BAA-747): 0.25 µg/mL; MIC A. baumanii NCTC 13424 (Acinetobacter baumannii; strain NCTC 13424): 0.25 µg/mL; MIC P. aeruginosa 068 (Pseudomonas aeruginosa; strain 068): 8 µg/mL; MIC P. aeruginosa 070 (Pseudomonas aeruginosa; strain 070): 16 µg/mL; MIC P. aeruginosa ATCC 27853 (Pseudomonas aeruginosa; strain ATCC 27853): 0.25 µg/mL; MIC P. aeruginosa CCUG 59347 (Pseudomonas aeruginosa; strain CCUG 59347): 0.25 µg/mL; MIC K. pneumoniae 063 (Klebsiella pneumoniae; strain 063): 32 µg/mL; MIC K. pneumoniae 065 (Klebsiella pneumoniae; strain 065): 1 µg/mL; MIC K. pneumoniae ATCC 13882 (Klebsiella pneumoniae; strain ATCC 13882): 0.25 µg/mL; HK-2 IC50 (HK-2 cells; HK-2 cells): 60 µg/mL
